According to patent US11180504B2 (ORCHID PHARMA LTD., priority 2016, dated 2021):
Converted amounts (≈) assume the structure as drawn.

Key:
[1] = system: methicillin-sensitive Staphylococcus aureus; experiment: MIC by broth micro-dilution (CLSI), methicillin-sensitive S. aureus; format: cell-based; settings: Staphylococcus aureus, ATCC 29213 / MSSA, MSSA S. aureus ATCC29213; read-out: MIC
[2] = system: carbapenem sensitive Escherichia coli; experiment: MIC by broth micro-dilution (CLSI), carbapenem sensitive E. coli; format: cell-based; settings: Escherichia coli, ATCC25922, ESBL −ve E. coli ATCC25922; read-out: MIC
[3] = system: carbapenemase producing K. pneumoniae; experiment: MIC by broth micro-dilution (CLSI), carbapenemase producing K. pneumoniae; format: cell-based, Klebsiella pneumoniae; settings: Klebsiella pneumoniae, ATCCBAA1705, KPC-2 K. pneumoniae ATCC BAA-1705; read-out: MIC
[4] = system: carbapenem sensitive Pseudomonas aeruginosa; experiment: MIC by broth micro-dilution (CLSI), carbapenem sensitive P. aeruginosa; format: cell-based; settings: Pseudomonas aeruginosa, ATCC27853, Meropenem susceptible P. aeruginosa ATCC27853; read-out: MIC

SMILES	MIC [1]	MIC [2]	MIC [3]	MIC [4]
C[C@@H](NC(=O)Cn1cnnn1)[C@H]1C(=O)N2C(C(=O)O)=C(S[C@@H]3CN[C@H](C(=O)N4CCN(C)CC4)C3)[C@H](C)[C@H]12 [Example 359, (4R,5S,6R)-6-((R)-1-(2-(1H-tetrazol-1-yl)acetamido)ethyl)-4-methyl-3-((3S,5S)-5-(4-methylpiperazine-1-carbonyl)pyrrolidin-3-ylthio)-7-oxo-1-azabicyclo[3.2.0]hept-2-ene-2-carboxylic acid]	8 µg/mL (≈ 14.6 µM)	0.5 µg/mL (≈ 0.913 µM)	2 µg/mL (≈ 3.65 µM)	16 µg/mL (≈ 29.2 µM)
C[C@@H](NC(=O)Cn1nnnc1N)[C@H]1C(=O)N2C(C(=O)O)=C(S[C@@H]3CN[C@H](C(=O)N(C)C)C3)[C@H](C)[C@H]12 [Example 392, (4R,5S,6R)-6-((R)-1-(2-(5-amino-1H-tetrazol-1-yl)acetamido)ethyl)-3-((3S,5S)-5-(dimethylcarbamoyl)pyrrolidin-3-ylthio)-4-methyl-7-oxo-1-azabicyclo[3.2.0]hept-2-ene-2-carboxylic acid]	4 µg/mL (≈ 7.88 µM)	1 µg/mL (≈ 1.97 µM)	4 µg/mL (≈ 7.88 µM)	64 µg/mL (≈ 126 µM)
C[C@@H](NC(=O)Cn1nnc(C(F)(F)F)n1)[C@H]1C(=O)N2C(C(=O)O)=C(S[C@@H]3CN[C@H](C(=O)N(C)C)C3)[C@H](C)[C@H]12 [Example 335, (4R,5S,4R)-3-((3S,5S)-5-(dimethylcarbamoyl)pyrrolidin-3-ylthio)-4-methyl-7-oxo-6-((R) - 1-(2-(5-(trifluoromethyl)-2H-tetrazol-2-yl)acetamido)ethyl) - 1-azabicyclo[3.2.0]hept-2-ene-2-carboxylic acid]	4 µg/mL (≈ 7.14 µM)	1 µg/mL (≈ 1.78 µM)	64 µg/mL (≈ 114 µM)	> 128 µg/mL
C[C@@H](NC(=O)Cn1cnnn1)[C@H]1C(=O)N2C(C(=O)O)=C(S[C@@H]3CN[C@H](C(=O)N4CCC5(CCCCN5)CC4)C3)[C@H](C)[C@H]12 [Example 418, (4R,5S,6R)-3-((3S,5S)-5-(1,9-diazaspiro[5.5]undecane-9-carbonyl)pyrrolidin-3-ylthio)-6-((R)-1-(2-(1H-tetrazol-1-yl)acetamido)ethyl)-4-methyl-7-oxo-1-azabicyclo[3.2.0]hept-2-ene-2-carboxylic acid]	8 µg/mL (≈ 13.3 µM)	1 µg/mL (≈ 1.66 µM)	4 µg/mL (≈ 6.65 µM)	8 µg/mL (≈ 13.3 µM)

Now from value to molecule:

MIC [1]	MIC [2]	MIC [3]	MIC [4]	SMILES
4 µg/mL (≈ 8.39 µM)	2 µg/mL (≈ 4.2 µM)	4 µg/mL (≈ 8.39 µM)	32 µg/mL (≈ 67.1 µM)	C[C@H]([C@H]1C(=O)N2C(C(=O)O)=C(S[C@@H]3CN[C@H](C(=O)N4CC[C@@H](N)C4)C3)[C@H](C)[C@H]12)n1cnnn1 [Example 328, (4R,5S,6S)-6-((R) - 1-(1H-tetrazol-1-yl)ethyl)-3-((3S,5S)-5-((R)-3-aminopyrrolidine-1-carbonyl)pyrrolidin-3-ylthio)-4-methyl-7-oxo-1-azabicyclo[3.2.0]hept-2-ene-2-carboxylic acid]
4 µg/mL (≈ 6.9 µM)	0.125 µg/mL (≈ 0.216 µM)	1 µg/mL (≈ 1.73 µM)	1 µg/mL (≈ 1.73 µM)	C[C@@H](NC(=O)Cn1cnnn1)[C@H]1C(=O)N2C(C(=O)O)=C(S[C@@H]3CN[C@H](C(=O)N4C[C@H](N)[C@@H](O)[C@H]4CO)C3)[C@H](C)[C@H]12 [Example 549, (4R,5S,6R)-6-((R)-1-(2-(1H-tetrazol-1-yl)acetamido)ethyl)-3-((3S,5S)-5-((2R,3R,4S)-4-amino-3-hydroxy-2-(hydroxymethyl)pyrrolidine-1-carbonyl)pyrrolidin-3-ylthio)-4-methyl-7-oxo-1-azabicyclo[3.2.0]hept-2-ene-2-carboxylic acid]
4 µg/mL (≈ 6.67 µM)	0.5 µg/mL (≈ 0.834 µM)	8 µg/mL (≈ 13.3 µM)	> 128 µg/mL	C[C@@H](NC(=O)Cn1cnnn1)[C@H]1C(=O)N2C(C(=O)O)=C(S[C@@H]3CN[C@H](C(=O)N4CCC(n5nccn5)CC4)C3)[C@H](C)[C@H]12 [Example 448, (4R,5S,6R)-6-((R)-1-(2-(1H-tetrazol-1-yl)acetamido)ethyl)-3-((3S,5S)-5-(4-(2H-1,2,3-triazol-2-yl)piperidine-1-carbooyl)pyrrolidin-3-ylthio)-4-methyl-7-oxo-1-azabicyclo[3.2.0]hept-2-ene-2-carboxylic acid]
